Experiments:
Type in all cases: binding
H-2 K^k = H-2 K^k (Mus musculus, UniProt P04223)
H-2 D^d = H-2 D^d (Mus musculus, UniProt P01900)
HLA B*3501 = HLA B*3501 (Homo sapiens, UniProt P01889, A329T/A93T/A95T/C349S/D201E/D98Y/E176V/E187L/E204Q/E69T/I218V/K202T/L119I/Q94N/R155S/R180L/S121R/S35A/S48A/T118I/V127L/V306I/V36M/Y140S/Y91F)
HLA B*5802 = HLA B*5802 (Homo sapiens, UniProt P01889, A329T/C349S/D201E/D98Y/E176V/E187L/E204Q/E69T/G107R/I218V/I90N/K202T/L105A/N104I/N87E/Q89R/Q94S/R106L/R155S/R180L/R86G/S101N/S121W/S35A/S48A/V127L/V306I/V36M/Y140S/Y91M)
HLA B*5401 = HLA B*5401 (Homo sapiens, UniProt P01889, A329T/C349S/D138N/D201E/E176V/E187T/E204Q/E69G/I76V/K202T/L119W/R155S/R180L/S121T/S35A/S48A/V127L/V306I/V36M/Y140L)
HLA B*5301 = HLA B*5301 (Homo sapiens, UniProt P01889, A329T/A93T/A95T/C349S/D201E/D98Y/E176V/E187L/E204Q/E69T/G107R/I218V/K202T/L105A/L119I/N104I/Q94N/R106L/R155S/R180L/S101N/S121R/S35A/S48A/T118I/V127L/V306I/V36M/Y140S/Y91F)
H-2 K^d = H-2 K^d (Mus musculus, UniProt P01902)
H-2 K^d, sequence (P01887 21-119): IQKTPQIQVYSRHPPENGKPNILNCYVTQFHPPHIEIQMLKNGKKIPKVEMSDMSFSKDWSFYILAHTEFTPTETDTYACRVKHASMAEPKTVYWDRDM
H-2 K^d, sequence (P01902 22-368): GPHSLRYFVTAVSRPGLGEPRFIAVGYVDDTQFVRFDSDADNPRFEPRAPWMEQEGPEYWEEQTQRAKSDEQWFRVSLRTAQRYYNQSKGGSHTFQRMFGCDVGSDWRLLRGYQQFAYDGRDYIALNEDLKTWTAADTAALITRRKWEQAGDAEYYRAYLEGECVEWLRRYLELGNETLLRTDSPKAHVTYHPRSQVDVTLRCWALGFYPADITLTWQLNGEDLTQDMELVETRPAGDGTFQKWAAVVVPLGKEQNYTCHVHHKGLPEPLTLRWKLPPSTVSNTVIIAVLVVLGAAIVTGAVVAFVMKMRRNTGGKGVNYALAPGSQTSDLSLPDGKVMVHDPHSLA

HLA B*1503 = HLA B*1503 (Homo sapiens, UniProt P01889, A329T/A93T/A95T/C349S/D201E/D98Y/E187L/E204Q/K202T/N87E/Q94N/R155S/R180L/S121R/S35A/V306I/V36M/Y140S/Y91S); assay: biochemical
HLA A*6802 = HLA A*6802 (Homo sapiens, UniProt P04439, A269V/D140Y/D185E/E176V/E277Q/E87N/F33Y/G231S/I121R/I166T/I218V/L180W/L300P/L318F/N151K/P208A/P217A/Q86R/R138H/R169H/S129P/T345S/V36M)
HLA B*1501 = HLA B*1501 (Homo sapiens, UniProt P01889, A329T/A93T/A95T/C349S/D201E/D98Y/E187L/E204Q/E69M/E70A/K202T/N87E/Q94N/R155S/R180W/S121R/S35A/S48A/V306I/V36M/Y140S/Y91S); assay: biochemical
HLA A*3201 = HLA A*3201 (Homo sapiens, UniProt P04439, A270S/D101S/D185E/E176V/E277Q/F133L/G103R/G107R/G231S/H175R/I121M/I218V/I322F/K168Q/L105A/L300P/L318F/M331R/P208A/P217A/Q94H/R106L/R138Q/S129P/T104I/T323A/T345S/V100E/V321M/V358M); assay: biochemical
HLA B*5801 = HLA B*5801 (Homo sapiens, UniProt P01889, A329T/C349S/D201E/D98Y/E176V/E187L/E204Q/E69T/G107R/I218V/I90N/K202T/L105A/L119I/N104I/N87E/Q89R/Q94S/R106L/R155S/R180L/R86G/S101N/S121R/S35A/S48A/T118I/V127L/V306I/V36M/Y140S/Y91M)
HLA A*3001 = HLA A*3001 (Homo sapiens, UniProt P04439, D140H/D185E/E176W/F33S/G80R/H175R/K168Q/R138E/R41S); assay: biochemical
HLA B*0801 = HLA B*0801 (Homo sapiens, UniProt P01889, A93T/A95T/D138N/E176V/E187T/K202T/Q94N/R180D/S35A/V36M/Y33D/Y91F); assay: biochemical
HLA B*5101 = HLA B*5101 (Homo sapiens, UniProt P01889, A329T/A93T/A95T/C349S/D138N/D201E/D98Y/E187L/E204Q/E69T/G107R/I218V/K202T/L105A/L119W/N104I/Q94N/R106L/R155S/R180L/S101N/S121T/S35A/S48A/V306I/V36M/Y195H/Y91F)
H-2 D^b = H-2 D^b (Mus musculus, UniProt P01899)
H-2 D^b, sequence (P01887 21-119): as the sequence (P01887 21-119) above
H-2 D^b, sequence (P01899 25-362): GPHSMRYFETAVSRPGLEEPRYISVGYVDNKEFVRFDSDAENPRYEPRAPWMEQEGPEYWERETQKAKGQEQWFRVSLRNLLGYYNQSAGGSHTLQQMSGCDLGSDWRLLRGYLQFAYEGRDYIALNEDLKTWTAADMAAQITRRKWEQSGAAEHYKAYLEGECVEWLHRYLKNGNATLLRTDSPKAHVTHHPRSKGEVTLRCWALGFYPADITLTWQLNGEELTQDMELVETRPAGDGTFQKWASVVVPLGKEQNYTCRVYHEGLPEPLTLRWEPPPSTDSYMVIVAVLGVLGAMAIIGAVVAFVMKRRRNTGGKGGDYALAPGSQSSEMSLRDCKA

H-2 K^k, sequence (P01887 21-119): as the sequence (P01887 21-119) above
H-2 K^k, sequence (P04223 22-369): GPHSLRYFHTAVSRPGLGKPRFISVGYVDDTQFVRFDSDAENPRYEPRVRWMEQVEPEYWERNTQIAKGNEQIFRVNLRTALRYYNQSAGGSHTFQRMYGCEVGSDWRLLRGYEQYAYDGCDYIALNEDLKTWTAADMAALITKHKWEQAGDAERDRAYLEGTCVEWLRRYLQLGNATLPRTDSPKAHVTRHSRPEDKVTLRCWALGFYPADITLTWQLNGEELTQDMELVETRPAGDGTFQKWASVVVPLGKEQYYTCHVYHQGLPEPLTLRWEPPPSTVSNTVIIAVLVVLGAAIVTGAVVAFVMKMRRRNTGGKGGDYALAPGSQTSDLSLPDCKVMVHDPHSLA
H-2 D^d, sequence (P01900 whole entry, looked up): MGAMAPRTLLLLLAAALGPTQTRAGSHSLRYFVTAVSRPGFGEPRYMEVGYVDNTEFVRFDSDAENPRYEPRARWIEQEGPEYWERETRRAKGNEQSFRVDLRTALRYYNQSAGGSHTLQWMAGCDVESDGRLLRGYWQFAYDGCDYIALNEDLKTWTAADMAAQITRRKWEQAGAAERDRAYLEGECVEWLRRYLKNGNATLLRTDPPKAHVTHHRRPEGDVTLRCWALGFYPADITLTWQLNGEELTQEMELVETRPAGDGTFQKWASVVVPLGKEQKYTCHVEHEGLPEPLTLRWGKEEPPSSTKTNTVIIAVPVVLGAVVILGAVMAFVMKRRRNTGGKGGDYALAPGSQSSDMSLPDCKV

Sequence | Normalized average relative binding affinity(ARB) (H-2 K^k) | Normalized average relative binding affinity(ARB) (H-2 D^d) | Normalized average relative binding affinity(ARB) (HLA B*3501) | Normalized average relative binding affinity(ARB) (HLA B*5802) | Normalized average relative binding affinity(ARB) (HLA B*5401) | Normalized average relative binding affinity(ARB) (HLA B*5301) | Normalized average relative binding affinity(ARB) (H-2 K^d) | Normalized average relative binding affinity(ARB) (HLA B*1503) | Normalized average relative binding affinity(ARB) (HLA A*6802) | Normalized average relative binding affinity(ARB) (HLA B*1501) | Normalized average relative binding affinity(ARB) (HLA A*3201) | Normalized average relative binding affinity(ARB) (HLA B*5801) | Normalized average relative binding affinity(ARB) (HLA A*3001) | Normalized average relative binding affinity(ARB) (HLA B*0801) | Normalized average relative binding affinity(ARB) (HLA B*5101) | Normalized average relative binding affinity(ARB) (H-2 D^b)
XXXXGXXXX [3064.0086] | 0.17 | 0.11 | 0.35 | 0.37 | 0.19 | 0.32 | 0.30 | 0.65 | 1.0 | 0.77 | 0.31 | 0.38 | 0.29 | 0.029 | 0.31 | 0.064
XXXXXXAXX [3064.0121] | 0.12 | 0.037 | 0.22 | 0.032 | 0.45 | 0.31 | 0.17 | 0.0014 | 0.37 | 0.69 | 0.20 | 0.0045 | 0.12 | 0.44 | 0.24 | 0.65
XXXXXXQXX [3064.0134] | 0.016 | 0.057 | 0.36 | 0.22 | 1.0 | 1.0 | 0.25 | 0.95 | 0.45 | 0.51 | 0.33 | 0.23 | 0.29 | 0.79 | 0.50 | 0.84
XXXXXIXXX [3064.0108] | 0.55 | 0.46 | 0.28 | 0.072 | 0.81 | 0.41 | 0.36 | 0.41 | 0.38 | 0.53 | 0.83 | 0.67 | 0.27 | 0.048 | 0.74 | 0.77

Source: article PMC2248166, “Quantitative peptide binding motifs for 19 human and mouse MHC class I molecules derived using positional scanning combinatorial peptide libraries” (Immunome Research, 2008)
